Test results from patent US20230210831A1, “CHRONIC KIDNEY DISEASE TREATMENT OR PREVENTION METHOD” (Japan Tobacco Inc., priority 2019, published 2023).

Tests used:
Assay type in all cases: cell-based
[1] = test system: Salmonella typhimurium TA98; experiment: Ames test (reverse mutation test), TA98
Method: (§1) The solvent used herein was dimethyl sulfoxide (DMSO, 100 µL/plate).
(§2) The mixtures were preincubated at 37° C. for 20 minutes while shaking. […] Two plates per treatment were used.

[2] = test system: Salmonella typhimurium TA1537; experiment: Ames test (reverse mutation test), TA1537
Method: as §1, §2

[3] = test system: Salmonella typhimurium TA100; experiment: Ames test (reverse mutation test), TA100
Method: as §1, §2

[4] = test system: Salmonella typhimurium TA1535; experiment: Ames test (reverse mutation test), TA1535
Method: as §1, §2

Escherichia coli WP2uvrA = experiment: Ames test (reverse mutation test), WP2uvrA
Method: as §1, §2

Cc1ccc(-n2nc(N)cc2-c2cccc(OCC(F)(F)F)c2)cc1 [Metabolite F]
Number of revertant colonies TA98 ([1]; S9 Mix +, dose 2.3 µg/plate): 93 | Number of revertant colonies TA98 ([1]; S9 Mix +, dose 6.9 µg/plate): 218 | Number of revertant colonies TA98 ([1]; S9 Mix +, dose 21 µg/plate): 522 | Number of revertant colonies TA98 ([1]; S9 Mix +, dose 62 µg/plate): 484 | Number of revertant colonies TA98 ([1]; S9 Mix +, dose 185 µg/plate): 287 | Number of revertant colonies TA98 ([1]; S9 Mix +, dose 556 µg/plate): 151 | Number of revertant colonies TA98 ([1]; S9 Mix +, dose 1667 µg/plate): 61 | Number of revertant colonies TA98 ([1]; S9 Mix +, dose 5000 µg/plate): 0 | Number of revertant colonies TA98 ([1]; S9 Mix -, dose 2.3 µg/plate): 25 | Number of revertant colonies TA98 ([1]; S9 Mix -, dose 6.9 µg/plate): 32 | Number of revertant colonies TA98 ([1]; S9 Mix -, dose 21 µg/plate): 21 | Number of revertant colonies TA98 ([1]; S9 Mix -, dose 62 µg/plate): 21 | Number of revertant colonies TA98 ([1]; S9 Mix -, dose 185 µg/plate): 20 | Number of revertant colonies TA98 ([1]; S9 Mix -, dose 556 µg/plate): 19 | Number of revertant colonies TA98 ([1]; S9 Mix -, dose 1667 µg/plate): 6 | Number of revertant colonies TA98 ([1]; S9 Mix -, dose 5000 µg/plate): 0 | potential to induce reverse mutations ([1]; TA98 with S9 mix): showed potential to induce reverse mutations | Number of revertant colonies TA1537 ([2]; S9 Mix +, dose 2.3 µg/plate): 41 | Number of revertant colonies TA1537 ([2]; S9 Mix +, dose 6.9 µg/plate): 92 | Number of revertant colonies TA1537 ([2]; S9 Mix +, dose 21 µg/plate): 157 | Number of revertant colonies TA1537 ([2]; S9 Mix +, dose 62 µg/plate): 227 | Number of revertant colonies TA1537 ([2]; S9 Mix +, dose 185 µg/plate): 151 | Number of revertant colonies TA1537 ([2]; S9 Mix +, dose 556 µg/plate): 54 | Number of revertant colonies TA1537 ([2]; S9 Mix +, dose 1667 µg/plate): 39 | Number of revertant colonies TA1537 ([2]; S9 Mix +, dose 5000 µg/plate): 3 | Number of revertant colonies TA1537 ([2]; S9 Mix -, dose 2.3 µg/plate): 9 | Number of revertant colonies TA1537 ([2]; S9 Mix -, dose 6.9 µg/plate): 16 | Number of revertant colonies TA1537 ([2]; S9 Mix -, dose 21 µg/plate): 16 | Number of revertant colonies TA1537 ([2]; S9 Mix -, dose 62 µg/plate): 10 | Number of revertant colonies TA1537 ([2]; S9 Mix -, dose 185 µg/plate): 3 | Number of revertant colonies TA1537 ([2]; S9 Mix -, dose 556 µg/plate): 0 | Number of revertant colonies TA1537 ([2]; S9 Mix -, dose 1667 µg/plate): 0 | Number of revertant colonies TA1537 ([2]; S9 Mix -, dose 5000 µg/plate): 0 | potential to induce reverse mutations ([2]; TA1537 with S9 mix): showed potential to induce reverse mutations | Number of revertant colonies TA100 ([3]; S9 Mix +, dose 2.3 µg/plate): 553 | Number of revertant colonies TA100 ([3]; S9 Mix +, dose 6.9 µg/plate): 1417 | Number of revertant colonies TA100 ([3]; S9 Mix +, dose 21 µg/plate): 2888 | Number of revertant colonies TA100 ([3]; S9 Mix +, dose 62 µg/plate): 3713 | Number of revertant colonies TA100 ([3]; S9 Mix +, dose 185 µg/plate): 2889 | Number of revertant colonies TA100 ([3]; S9 Mix +, dose 556 µg/plate): 1288 | Number of revertant colonies TA100 ([3]; S9 Mix +, dose 1667 µg/plate): 1576 | Number of revertant colonies TA100 ([3]; S9 Mix +, dose 5000 µg/plate): 1160 | Number of revertant colonies TA100 ([3]; S9 Mix -, dose 2.3 µg/plate): 107 | Number of revertant colonies TA100 ([3]; S9 Mix -, dose 6.9 µg/plate): 104 | Number of revertant colonies TA100 ([3]; S9 Mix -, dose 21 µg/plate): 115 | Number of revertant colonies TA100 ([3]; S9 Mix -, dose 62 µg/plate): 109 | Number of revertant colonies TA100 ([3]; S9 Mix -, dose 185 µg/plate): 93 | Number of revertant colonies TA100 ([3]; S9 Mix -, dose 556 µg/plate): 62 | Number of revertant colonies TA100 ([3]; S9 Mix -, dose 1667 µg/plate): 58 | Number of revertant colonies TA100 ([3]; S9 Mix -, dose 5000 µg/plate): 40 | potential to induce reverse mutations ([3]; TA100 with S9 mix): showed potential to induce reverse mutations | Number of revertant colonies TA1535 ([4]; S9 Mix +, dose 1667 µg/plate): 0 | Number of revertant colonies TA1535 ([4]; S9 Mix -, dose 556 µg/plate): 0 | Number of revertant colonies TA1535 ([4]; S9 Mix -, dose 1667 µg/plate): 0 | Number of revertant colonies WP2uvrA (Escherichia coli WP2uvrA; S9 Mix +, dose 2.3 µg/plate): 25 | Number of revertant colonies WP2uvrA (Escherichia coli WP2uvrA; S9 Mix +, dose 6.9 µg/plate): 20 | Number of revertant colonies WP2uvrA (Escherichia coli WP2uvrA; S9 Mix +, dose 21 µg/plate): 30 | Number of revertant colonies WP2uvrA (Escherichia coli WP2uvrA; S9 Mix +, dose 62 µg/plate): 24 | Number of revertant colonies WP2uvrA (Escherichia coli WP2uvrA; S9 Mix +, dose 185 µg/plate): 20 | Number of revertant colonies WP2uvrA (Escherichia coli WP2uvrA; S9 Mix +, dose 556 µg/plate): 24 | Number of revertant colonies WP2uvrA (Escherichia coli WP2uvrA; S9 Mix +, dose 1667 µg/plate): 16 | Number of revertant colonies WP2uvrA (Escherichia coli WP2uvrA; S9 Mix +, dose 5000 µg/plate): 6 | Number of revertant colonies WP2uvrA (Escherichia coli WP2uvrA; S9 Mix -, dose 2.3 µg/plate): 24 | Number of revertant colonies WP2uvrA (Escherichia coli WP2uvrA; S9 Mix -, dose 6.9 µg/plate): 23 | Number of revertant colonies WP2uvrA (Escherichia coli WP2uvrA; S9 Mix -, dose 21 µg/plate): 26 | Number of revertant colonies WP2uvrA (Escherichia coli WP2uvrA; S9 Mix -, dose 62 µg/plate): 19 | Number of revertant colonies WP2uvrA (Escherichia coli WP2uvrA; S9 Mix -, dose 185 µg/plate): 13 | Number of revertant colonies WP2uvrA (Escherichia coli WP2uvrA; S9 Mix -, dose 556 µg/plate): 74 | Number of revertant colonies WP2uvrA (Escherichia coli WP2uvrA; S9 Mix -, dose 1667 µg/plate): 8 | Number of revertant colonies WP2uvrA (Escherichia coli WP2uvrA; S9 Mix -, dose 5000 µg/plate): 5 | potential to induce reverse mutations (Escherichia coli WP2uvrA; WP2uvrA without S9 mix): showed potential to induce reverse mutations
